Test results from patent US20260138976A1 (Hoffmann-La Roche Inc., priority 2022, published 2026).

Tests used:
primary human T-cells = assay: IL2 secretion measurements (24 h, CD3-stimulated T-cells, PBS counter screen); format: cell-based; details: for Emax IL2 (% activation): CD3 condition, normalised to DMSO (neutral) and 20 μM reference compound A1 = 100%; for EC50: Homo sapiens, T-cell, CD3-stimulated primary human T-cells, IL2 secretion, fitted sigmoidal curve, read-out: Tcell IL2 CD3 EC50
Procedure, shortened: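 IL-2 secretion was measured by ProQuantum or ELISA after 24 h culture of expanded human T-cells with compound, on CD3-antibody-coated plates or PBS counter-screen plates. Dosing used 5–6 points from a 20 or 10 μM final top at 3.333-fold steps in 0.2% DMSO. EC50/Emax were scaled between DMSO and 20 μM reference A1.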

[1] = molecular target: T1, DGKζ (hDGKzeta(1-928)-N-His) (Homo sapiens, UniProt Q13574); assay: In vitro DGK inhibition assay, DGKzeta ADP Glo (in house); format: biochemical; details: 2 nM DGKζ, 50 μM ATP, 125 uM DLG in liposomes, 1 hour reaction
T1 construct: hDGKzeta(1-928)-N-His; His (N); made in house; host or cells: Sf21 insect cells (baculovirus)
T1 sequence (Q13574 whole entry): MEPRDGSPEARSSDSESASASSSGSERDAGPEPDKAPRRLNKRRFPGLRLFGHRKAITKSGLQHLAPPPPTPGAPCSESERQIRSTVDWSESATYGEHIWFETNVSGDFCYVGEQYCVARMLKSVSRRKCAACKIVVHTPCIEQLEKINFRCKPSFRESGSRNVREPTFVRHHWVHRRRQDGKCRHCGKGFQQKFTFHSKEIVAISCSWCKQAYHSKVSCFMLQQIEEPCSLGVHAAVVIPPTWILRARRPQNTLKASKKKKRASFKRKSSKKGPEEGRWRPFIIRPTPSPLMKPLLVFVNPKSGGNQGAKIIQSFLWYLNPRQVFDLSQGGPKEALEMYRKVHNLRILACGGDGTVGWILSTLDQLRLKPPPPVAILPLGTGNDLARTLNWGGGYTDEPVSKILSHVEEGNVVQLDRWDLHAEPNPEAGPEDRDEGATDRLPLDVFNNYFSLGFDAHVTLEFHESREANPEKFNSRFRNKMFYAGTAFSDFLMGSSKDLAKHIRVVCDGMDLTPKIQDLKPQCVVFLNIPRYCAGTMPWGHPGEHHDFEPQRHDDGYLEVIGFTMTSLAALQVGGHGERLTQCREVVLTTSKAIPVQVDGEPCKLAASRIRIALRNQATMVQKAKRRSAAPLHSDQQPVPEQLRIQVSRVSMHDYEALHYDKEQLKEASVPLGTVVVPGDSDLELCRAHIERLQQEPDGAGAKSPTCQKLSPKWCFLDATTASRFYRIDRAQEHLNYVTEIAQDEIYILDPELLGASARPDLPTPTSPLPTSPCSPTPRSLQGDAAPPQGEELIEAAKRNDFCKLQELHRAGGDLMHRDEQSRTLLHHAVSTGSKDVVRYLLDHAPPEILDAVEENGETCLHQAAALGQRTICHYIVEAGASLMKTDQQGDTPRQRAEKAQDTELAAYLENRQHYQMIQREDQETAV
Procedure, shortened: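 ADP-Glo luminescence measured ADP formed over 1 h by Sf21-expressed full-length human enzymes: DGKα at 4 nM with 25 µM ATP, DGKζ at 2 nM with 50 µM ATP, both on 125 µM DLG in PS/PC liposomes. Dose–response used 11 threefold dilutions at 2% final DMSO.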

| Structure (SMILES) | IC50 [1] [nM] | Emax IL2 (% activation) (primary human T-cells) | EC50 (primary human T-cells) [nM] |
| --- | --- | --- | --- |
| Cn1ccc(-c2ccc(CN3C(=O)[C@@H](N)CS(=O)(=O)c4cc(F)c(-c5nnc(C(C)(C)C)o5)cc43)cc2)n1 [Example 1, (3R)-3-amino-7-(5-tert-butyl-1,3,4-oxadiazol-2-yl)-8-fluoro-5-[[4-(1-methylpyrazol-3-yl)phenyl]methyl]-1,1-dioxo-2,3-dihydro-1λ^6,5-benzothiazepin-4-one] | 488 | 91 | 1310 |
| Cc1noc(-c2ccc(CN3C(=O)[C@@H](N)CS(=O)(=O)c4cc(F)c(-c5nnc(C(C)(C)C)o5)cc43)cc2)n1 [Example 2] | 128 | 168 | 891 |
| CC(C)Nc1nnc(-c2cc3c(cc2F)S(=O)(=O)C[C@H](N)C(=O)N3Cc2ccc(-c3noc(C(F)(F)F)n3)cc2)o1 [Example 6, (3R)-3-amino-8-fluoro-7-[5-(isopropylamino)-1,3,4-oxadiazol-2-yl]-1,1-dioxo-5-[[4-[5-(trifluoromethyl)-1,2,4-oxadiazol-3-yl]phenyl]methyl]-2,3-dihydro-1λ^6,5-benzothiazepin-4-one] | 696 | 212 | 1170 |
| CC(C)(C)c1nc(-c2cc3c(cc2F)S(=O)(=O)C[C@H](N)C(=O)N3Cc2ccc(-c3ccc(CO)cc3)nc2)no1 [Example 7, (3R)-3-amino-7-(5-tert-butyl-1,2,4-oxadiazol-3-yl)-8-fluoro-5-[[6-[4-(hydroxymethyl)phenyl]-3-pyridyl]methyl]-1,1-dioxo-2,3-dihydro-1λ^6,5-benzothiazepin-4-one] | 1400 | 38 | > 10000 |
| N[C@H]1CS(=O)(=O)c2cc(F)c(-c3noc(N4CCCC4)n3)cc2N(Cc2ccc(-c3noc(C(F)(F)F)n3)nc2)C1=O [Example 15, (3R)-3-amino-8-fluoro-1,1-dioxo-7-(5-pyrrolidin-1-yl-1,2,4-oxadiazol-3-yl)-5-[[6-[5-(trifluoromethyl)-1,2,4-oxadiazol-3-yl]-3-pyridyl]methyl]-2,3-dihydro-1λ^6,5-benzothiazepin-4-one] | 466 | 39 | > 10000 |
| Cn1ccc(-c2ccc(CN3C(=O)[C@@H](N)CS(=O)(=O)c4ccc(-c5nnc(C(C)(C)C)o5)cc43)cc2)n1 [Example 21] | 2310 | 53 | 8010 |
| CC(C)(C)c1nnc(-c2ccc3c(c2)N(Cc2ccc(-n4ccc(C(F)(F)F)n4)cc2)C(=O)[C@@H](N)CS3(=O)=O)o1 [Example 27] | 758 | 160 | 476 |
| CC(C)(C)c1nnc(-c2ccc3c(c2)N(Cc2ccc(-n4cnc(C(F)(F)F)c4)cc2)C(=O)[C@@H](N)CS3(=O)=O)o1 [Example 28, (3R)-3-amino-7-(5-tert-butyl-1,3,4-oxadiazol-2-yl)-1,1-dioxo-5-[[4-[4-(trifluoromethyl)imidazol-1-yl]phenyl]methyl]-2,3-dihydro-1λ^6,5-benzothiazepin-4-one] | 4260 | 81 | 5010 |
| CC(N)(c1nnc(-c2ccc3c(c2)N(Cc2ccc(-c4noc(CC(F)(F)F)n4)cc2)C(=O)[C@@H](N)CS3(=O)=O)o1)C(F)(F)F (stereo partly drawn) [Example 33, (3R)-3-amino-7-[5-(1-amino-2,2,2-trifluoro-1-methyl-ethyl)-1,3,4-oxadiazol-2-yl]-1,1-dioxo-5-[[4-[5-(2,2,2-trifluoroethyl)-1,2,4-oxadiazol-3-yl]phenyl]methyl]-2,3-dihydro-1λ^6,5-benzothiazepin-4-one] | 2640 | 24 | > 10000 |
| COC(=O)N1CC2CC(c3nnc(-c4ccc5c(c4)N(Cc4ccc(-c6ccc(OC)cc6)cc4)C(=O)[C@@H](N)CS5(=O)=O)o3)(C2)C1 [Example 59, methyl 1-[5-[(3R)-3-amino-5-[[4-(4-methoxyphenyl)phenyl]methyl]-1,1,4-trioxo-2,3-dihydro-1λ^6,5-benzothiazepin-7-yl]-1,3,4-oxadiazol-2-yl]-3-azabicyclo[3.1.1]heptane-3-carboxylate] | 1140 | 175 | 596 |
| COC(=O)N1CC2CC(c3nnc(-c4ccc5c(c4)N(Cc4ccc(-c6ccc(C(F)(F)F)cc6)cc4)C(=O)[C@@H](N)CS5(=O)=O)o3)(C2)C1 [Example 60, methyl 1-[5-[(3R)-3-amino-1,1,4-trioxo-5-[[4-[4-(trifluoromethyl)phenyl]phenyl]methyl]-2,3-dihydro-1λ^6,5-benzothiazepin-7-yl]-1,3,4-oxadiazol-2-yl]-3-azabicyclo[3.1.1]heptane-3-carboxylate] | 3080 | 163 | 424 |
| COC(F)(c1nnc(-c2ccc3c(c2)N(Cc2ccc(-c4nnc(C5CC5)o4)cc2)C(=O)[C@@H](N)CS3(=O)=O)o1)C(F)(F)F (stereo partly drawn) [Example 65] | 6440 | 92 | 1420 |

Now from value to compound, other results behind:

| IC50 [1] [nM] | Structure (SMILES) | Emax IL2 (% activation) (primary human T-cells) | EC50 (primary human T-cells) [nM] |
| --- | --- | --- | --- |
| 523 | CC(C)(C)c1nnc(-c2ccc3c(c2)N(Cc2ccc(-c4noc(C(F)(F)F)n4)cc2)C(=O)[C@@H](N)CS3(=O)=O)o1 [Example 23, (3R)-3-amino-7-(5-tert-butyl-1,3,4-oxadiazol-2-yl)-1,1-dioxo-5-[[4-[5-(trifluoromethyl)-1,2,4-oxadiazol-3-yl]phenyl]methyl]-2,3-dihydro-1λ^6,5-benzothiazepin-4-one] | 120 | 769 |
| 1270 | CC(C)(C)c1nnc(-c2ccc3c(c2)N(Cc2ccc(-n4cc(C(F)(F)F)cn4)cc2)C(=O)[C@@H](N)CS3(=O)=O)o1 [Example 25, (3R)-3-amino-7-(5-tert-butyl-1,3,4-oxadiazol-2-yl)-1,1-dioxo-5-[[4-[4-(trifluoromethyl)pyrazol-1-yl]phenyl]methyl]-2,3-dihydro-1λ^6,5-benzothiazepin-4-one] | 137 | 609 |
| 1260 | CC(C)(C#N)c1nnc(-c2ccc3c(c2)N(Cc2ccc(-c4ccc(C(F)(F)F)cc4)cc2)C(=O)[C@@H](N)CS3(=O)=O)o1 [Example 46] | 263 | 331 |
| 1590 | CC1(c2nnc(-c3ccc4c(c3)N(Cc3ccc(-c5ccc(C(F)(F)F)cc5)cc3)C(=O)[C@@H](N)CS4(=O)=O)o2)CCO1 (stereo partly drawn) [Example 48, (3R)-3-amino-7-[5-(2-methyloxetan-2-yl)-1,3,4-oxadiazol-2-yl]-1,1-dioxo-5-[[4-[4-(trifluoromethyl)phenyl]phenyl]methyl]-2,3-dihydro-1lambda6,5-benzothiazepin-4-one] | 114 | 984 |
| 20300 | N[C@H]1CS(=O)(=O)c2ccc(-c3nnc(C4(CO)CCCO4)o3)cc2N(Cc2ccc(-c3ccc(C(F)(F)F)cc3)cc2)C1=O (stereo partly drawn) [Example 55] | 74 | 3110 |
| 1720 | COc1ccc(-c2ccc(CN3C(=O)[C@@H](N)CS(=O)(=O)c4ccc(-c5nnc(C6(CO)CCCO6)o5)cc43)cc2)cc1 (stereo partly drawn) [Example 63, (3R)-3-amino-7-[5-[2-(hydroxymethyl)tetrahydrofuran-2-yl]-1,3,4-oxadiazol-2-yl]-5-[[4-(4-methoxyphenyl)phenyl]methyl]-1,1-dioxo-2,3-dihydro-1λ^6,5-benzothiazepin-4-one] | 78 | 2410 |
| 895 | N[C@H]1CS(=O)(=O)c2ccc(-c3nnc(N4CCC(F)(F)CC4)o3)cc2N(Cc2ccc(-c3nnc(C(F)(F)F)o3)cc2)C1=O [Example 71, (3R)-3-amino-7-[5-(4,4-difluoro-1-piperidyl)-1,3,4-oxadiazol-2-yl]-1,1-dioxo-5-[[4-[5-(trifluoromethyl)-1,3,4-oxadiazol-2-yl]phenyl]methyl]-2,3-dihydro-1λ^6,5-benzothiazepin-4-one] | 111 | 3260 |
| 20900 | CC1(Nc2nnc(-c3ccc4c(c3)N(Cc3ccc(-c5noc(C(F)(F)F)n5)cc3)C(=O)[C@@H](N)CS4(=O)=O)o2)CC(F)(F)C1 [Example 72, (3R)-3-amino-7-[5-[(3,3-difluoro-1-methyl-cyclobutyl)amino]-1,3,4-oxadiazol-2-yl]-1,1-dioxo-5-[[4-[5-(trifluoromethyl)-1,2,4-oxadiazol-3-yl]phenyl]methyl]-2,3-dihydro-1λ^6,5-benzothiazepin-4-one] | 238 | 3280 |
| 13600 | N[C@H]1CS(=O)(=O)c2ccc(-c3nnc(N4CCOC(C(F)(F)F)C4)o3)cc2N(Cc2ccc(-c3ccc(C(F)(F)F)cc3)cc2)C1=O (stereo partly drawn) [Example 73, (3R)-3-amino-1,1-dioxo-7-[5-[2-(trifluoromethyl)morpholin-4-yl]-1,3,4-oxadiazol-2-yl]-5-[[4-[4-(trifluoromethyl)phenyl]phenyl]methyl]-2,3-dihydro-1λ^6,5-benzothiazepin-4-one] | 116 | 2530 |
